In US4435410A, “3-[2-(3-Alkyl and alkenyl-4-piperidyl)-ethyl]-indoles for inhibiting serotonin uptake and for releasing serotonin” (Pharmindustrie, priority 1981, dated 1984):

Legend:
[1] = tested on: human blood platelets (uptake of serotonin); experiment: Inhibition of the uptake of serotonin by human blood platelets; format: cell-based; conditions: Platelet, read-out: Inhibition of serotonin uptake I50
Source text: It is known that the uptake of serotonin by the blood platelets constitutes a good model for the uptake of this amine by the neurons (cf. J. Tuomisto, J. Pharm. Pharmac., 26. 92 (1974). When it is applied to the study of medicaments, a method which makes use of the blood platelets is very attractive from the point of view of allowing human cells to be used, thereby giving it good prospects.
The ability of products to inhibit the uptake of serotonin or to cause its release has been shown on human blood platelets according to J. L. David and Coll. "Platelets Function and Thrombosis, a Review of Methods", p. 335 (Plenum Press, London, 1972).
(1) Inhibition of the uptake of serotonin
The results are expressed by a 50% inhibiting dose or I50 which represents the dose of the product in micromoles per liter, reducing the uptake of serotonin by 50%.

[2] = tested on: human blood platelets (release of serotonin); experiment: Release of serotonin from human blood platelets; format: cell-based; conditions: Platelet, product concentration 5 × 10^-5 moles per liter, compared with controls, read-out: Percent of increased serotonin release
Procedure: The ability of products to inhibit the uptake of serotonin or to cause its release has been shown on human blood platelets according to J. L. David and Coll. "Platelets Function and Thrombosis, a Review of Methods", p.
The action of the products on the release of serotonin is tested at a concentration of 5×10^-5 moles per liter.

[3] = Acute toxicity in male mice by oral administration; conditions: mouse, in vivo; male mice CD1, oral, after 3 days' observation, cumulative method
Procedure: The acute toxicity of the products was determined in male mice CD1 (Charles RIVER) by oral administrations. The LD50 which was calculated after 3 days' observation, by the cumulative method of J. J. Reed and Coll. (Am. J. Hyg. 27, 493-1938) is 225 mg/kg for the compound of Example 1, and about 200 mg/kg for the compound of Example 4.

| Structure (SMILES) | IC50 [1] | activation at 50 µM [2] | LD50 at 72 h [3] |
| --- | --- | --- | --- |
| C=C[C@H]1CNCC[C@H]1CCc1c[nH]c2ccccc12 [Example 1, 3-[2-(3(R)VINYL-4(R)PIPERIDYL)-ETHYL]-INDOLE] | 8 nM | 84% | 225 mg/kg |
| C=C[C@@H]1CNCC[C@H]1CCc1c[nH]c2ccccc12 [Example 4, 3-{2-[3(S)VINYL-4(R)PIPERIDYL]-ETHYL}-INDOLE] | 35 nM | 91% | ~200 mg/kg |
| CC[C@H]1CNCC[C@H]1CCc1c[nH]c2ccccc12 [Example 2, 3-{2-[3(R)ETHYL-4(R)PIPERIDYL]-ETHYL}-INDOLE] | 60 nM | 75% |  |
